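Growth conditions: 96-well plates. Treatment: test compound, 48 hours, 5 concentrations. Analysis: linear interpolation between bracketing concentrations; unreached endpoints set to highest concentration. GI50: concentration for 50% inhibition of growth.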 Calls of active or inactive are those of the source. Cut-off read from the data, not from the text of the source: active = GI50 up to about 1.1 µM and inactive = higher.
Columns and labels:
Assay in all cases: NCI-60 cell line screen, 48 h
[1] = test system: Malme-3M
[2] = test system: EKVX
[3] = test system: MOLT-4
[4] = test system: SW-620
[5] = test system: SF-539
[6] = test system: CAKI-1
[7] = test system: HCC 2998
[8] = test system: RXF 393
[9] = test system: SK-MEL-5
[10] = test system: UACC-62
[11] = test system: U-251
[12] = test system: HL-60
[13] = test system: 786-0
[14] = test system: UACC-257
[15] = test system: UO-31
[16] = test system: HOP-92
[17] = test system: K562
[18] = test system: SR

SMILES | GI50 [1] | GI50 [2] | GI50 [3] | GI50 [4] | GI50 [5] | GI50 [6] | GI50 [7] | GI50 [8] | GI50 [9] | GI50 [10] | GI50 [11] | GI50 [12] | GI50 [13] | GI50 [14] | GI50 [15] | GI50 [16] | GI50 [17] | GI50 [18]
COc1cc(/C=C2/C(=O)N(C(=O)c3ccc(Cl)cc3)N=C2C)cc(OC)c1OC | > 100 µM (inactive) | > 100 µM (inactive) | > 100 µM (inactive) | > 100 µM (inactive) | > 100 µM (inactive) | > 100 µM (inactive) | > 100 µM (inactive) | > 100 µM (inactive) | > 100 µM (inactive) | > 100 µM (inactive) | > 100 µM (inactive) | > 100 µM (inactive) | > 100 µM (inactive) | > 100 µM (inactive) | > 100 µM (inactive) | > 100 µM (inactive) | > 100 µM (inactive) | 
COc1cc(/C=C(\C)c2ccc3c(c2)OCO3)cc(OC)c1OC | 19.8 µM (inactive) | 10.4 µM (inactive) | 16.7 µM (inactive) | 19.1 µM (inactive) | 14.1 µM (inactive) |  | 25.5 µM (inactive) | 34.1 µM (inactive) | 11.7 µM (inactive) |  | 50.4 µM (inactive) | 15.7 µM (inactive) | 21.3 µM (inactive) | 29.2 µM (inactive) | 27.3 µM (inactive) |  | 10.4 µM (inactive) | 19.3 µM (inactive)
CN(C)CCNC(=O)c1cccc2ccc(-c3ccc(Br)cc3)nc12 | 2.55 µM (inactive) | 2.61 µM (inactive) | 0.333 µM (active) | 1.17 µM (inactive) | 3.13 µM (inactive) | 1.3 µM (inactive) | 1.85 µM (inactive) | 3.96 µM (inactive) | 1.46 µM (inactive) | 1.8 µM (inactive) | 2.8 µM (inactive) | 1.23 µM (inactive) |  | 2.8 µM (inactive) | 1.76 µM (inactive) | 2.49 µM (inactive) | 1.7 µM (inactive) | 
CC1=C2C=CC(=O)C[C@@]2(C)CCC1 | > 100 µM (inactive) | > 100 µM (inactive) | > 100 µM (inactive) | > 100 µM (inactive) | > 100 µM (inactive) | > 100 µM (inactive) | > 100 µM (inactive) | > 100 µM (inactive) | > 100 µM (inactive) | > 100 µM (inactive) | > 100 µM (inactive) | > 100 µM (inactive) | > 100 µM (inactive) | > 100 µM (inactive) | > 100 µM (inactive) | > 100 µM (inactive) | > 100 µM (inactive) | 
COC(=O)CCC(NC(=S)N/N=C(\C)c1cccs1)C(=O)OC (centres undefined) | > 100 µM (inactive) | > 100 µM (inactive) |  | > 100 µM (inactive) | > 100 µM (inactive) |  | > 100 µM (inactive) | > 100 µM (inactive) | > 100 µM (inactive) | > 100 µM (inactive) | > 100 µM (inactive) |  | > 100 µM (inactive) | > 100 µM (inactive) | > 100 µM (inactive) | > 100 µM (inactive) | > 100 µM (inactive) | 
Cc1nc2ccccc2c(=O)n1/N=C(\N=N\c1ccccc1Cl)c1ccccc1Cl |  | 28.8 µM (inactive) | 22.1 µM (inactive) | > 100 µM (inactive) | 27.2 µM (inactive) | 29.4 µM (inactive) |  | 17.9 µM (inactive) | 63.1 µM (inactive) | 58.9 µM (inactive) | 48.5 µM (inactive) | 27.9 µM (inactive) | 48 µM (inactive) |  | 36.1 µM (inactive) | 13 µM (inactive) | 37.3 µM (inactive) | 
CCCN1CN(C(C(=O)N[C@@H]2C(=O)N3C(C(=O)O)=C(C)CSC23)c2ccccc2)CSC1=S (some centres undefined) | > 100 µM (inactive) | > 100 µM (inactive) | > 100 µM (inactive) |  | > 100 µM (inactive) |  |  | 25.9 µM (inactive) | > 100 µM (inactive) | > 100 µM (inactive) | > 100 µM (inactive) | 86.9 µM (inactive) | > 100 µM (inactive) | > 100 µM (inactive) | > 100 µM (inactive) | > 100 µM (inactive) | 47.6 µM (inactive) | 
CCCCC(C)/C=C/C(O)=C1\C(=O)O/C(=C\C(=O)O)C1=O (centres undefined) | > 100 µM (inactive) | > 100 µM (inactive) | > 100 µM (inactive) | > 100 µM (inactive) | > 100 µM (inactive) |  |  |  | > 100 µM (inactive) | > 100 µM (inactive) | > 100 µM (inactive) | > 100 µM (inactive) | > 100 µM (inactive) | > 100 µM (inactive) | > 100 µM (inactive) |  | > 100 µM (inactive) | > 100 µM (inactive)
COc1ccc(C2COc3c(ccc(O)c3C)C2)cc1OC (centres undefined) | 121 µM (inactive) | 136 µM (inactive) | 29.2 µM (inactive) | 81.3 µM (inactive) | 106 µM (inactive) | 112 µM (inactive) | 27.9 µM (inactive) | 24 µM (inactive) | 11.7 µM (inactive) | 96.2 µM (inactive) | 64.6 µM (inactive) | 21.6 µM (inactive) |  | 149 µM (inactive) | 66.1 µM (inactive) | 53.5 µM (inactive) | 59.6 µM (inactive) | 
CC(C)(O)[C@H](CCO)O[Si](c1ccccc1)(c1ccccc1)C(C)(C)C | 17.1 µM (inactive) | 14.2 µM (inactive) | 4.25 µM (inactive) | 12.8 µM (inactive) | 14.3 µM (inactive) |  | 6.01 µM (inactive) |  | 14.2 µM (inactive) | 11.3 µM (inactive) | 12.4 µM (inactive) | 4.99 µM (inactive) |  | 15.5 µM (inactive) | 11 µM (inactive) | 10.8 µM (inactive) | 7.74 µM (inactive) | 4.93 µM (inactive)
NNc1nnc(-c2ccccc2)nc1Cc1ccccc1 | 3.56 µM (inactive) | 22.3 µM (inactive) | 3.19 µM (inactive) | 5.13 µM (inactive) | 4.45 µM (inactive) | 13.8 µM (inactive) | 3.39 µM (inactive) | 5.53 µM (inactive) | 12.3 µM (inactive) | 3.62 µM (inactive) | 6.87 µM (inactive) | 4.32 µM (inactive) |  |  | 3.81 µM (inactive) |  | 5.65 µM (inactive) | 4.43 µM (inactive)
COc1ccc(/C(Cl)=C(\C=O)c2ccccc2)cc1OC | 61 µM (inactive) | 3.6 µM (inactive) | 6.85 µM (inactive) | 12.9 µM (inactive) | 31.4 µM (inactive) | 24.4 µM (inactive) | 38.5 µM (inactive) | 14.4 µM (inactive) | 25.4 µM (inactive) | 7.6 µM (inactive) | 18 µM (inactive) | 6.78 µM (inactive) |  | 15.2 µM (inactive) | 13.5 µM (inactive) |  | 19.2 µM (inactive) | 5.68 µM (inactive)
COc1ccc2[nH]c3c(C)c4cc[n+](COC(=O)c5ccccc5)cc4c(C)c3c2c1 | 1.43 µM (inactive) |  | 0.0379 µM (active) | 0.0668 µM (active) | 0.305 µM (active) | 0.569 µM (active) |  |  |  | 1.09 µM (active) | 0.392 µM (active) | 0.628 µM (active) | 0.138 µM (active) | 1.19 µM (inactive) | 1.76 µM (inactive) | 0.375 µM (active) | 0.221 µM (active) | 0.0313 µM (active)
O=c1c2ccccc2nc(-c2ccccc2)n1NC(=S)Nc1ccccc1 | > 100 µM (inactive) |  | > 100 µM (inactive) | > 100 µM (inactive) | > 100 µM (inactive) | > 100 µM (inactive) |  | > 100 µM (inactive) | 89.1 µM (inactive) | > 100 µM (inactive) | > 100 µM (inactive) | > 100 µM (inactive) | > 100 µM (inactive) | > 100 µM (inactive) | 81.7 µM (inactive) | > 100 µM (inactive) | > 100 µM (inactive) | > 100 µM (inactive)
COc1ccc(Nc2nc(C#N)c(N)s2)cc1 | 91.2 µM (inactive) |  | > 10 µM (inactive) | 46.1 µM (inactive) | 36.2 µM (inactive) | 24.6 µM (inactive) | > 10 µM (inactive) |  |  | 23.1 µM (inactive) | 34.2 µM (inactive) | 24.5 µM (inactive) | 64 µM (inactive) | 17.1 µM (inactive) | 40.8 µM (inactive) | > 100 µM (inactive) | 24.5 µM (inactive) | 
O=C(O)NC(c1ccccc1)C(NC(=O)c1ccccc1)c1ccccc1 (centres undefined) | > 100 µM (inactive) | > 100 µM (inactive) |  | > 100 µM (inactive) | > 100 µM (inactive) | > 100 µM (inactive) |  | > 100 µM (inactive) |  | > 100 µM (inactive) | > 100 µM (inactive) |  | > 100 µM (inactive) | > 100 µM (inactive) |  | > 100 µM (inactive) | > 100 µM (inactive) | > 100 µM (inactive)
Nc1nc(N)c2ncn(CC(CO)CC(c3ccccc3)P(=O)(O)O)c2n1 (centres undefined) | > 100 µM (inactive) |  | > 100 µM (inactive) | > 100 µM (inactive) | > 100 µM (inactive) | > 100 µM (inactive) | > 100 µM (inactive) | > 100 µM (inactive) | > 100 µM (inactive) | > 100 µM (inactive) | > 100 µM (inactive) | > 100 µM (inactive) |  | > 100 µM (inactive) | > 100 µM (inactive) | > 100 µM (inactive) | > 100 µM (inactive) | 
C=C1C(=O)O[C@@H]2OC3(C)CCC4C(C)CCC1C42OO3 (some centres undefined) |  | 11.4 µM (inactive) | 1.52 µM (inactive) | 3.05 µM (inactive) | 2.48 µM (inactive) | 2.36 µM (inactive) | 13.1 µM (inactive) |  | 4.88 µM (inactive) | 2.07 µM (inactive) | 4.85 µM (inactive) | 0.449 µM (active) |  | 3.18 µM (inactive) | 9.84 µM (inactive) | 1.85 µM (inactive) | 2.07 µM (inactive) | 

From ChEMBL document CHEMBL1201862, “PubChem BioAssay data set” (2004)
